The record followed here is PubChem BioAssay AID248 (DTP/NCI, 2004).

The experiment has as its system L1210 leukemia ip in BDF1 mice, survival T/C. In words: NCI In Vivo Anticancer Drug Screen. Data for tumor model L1210 Leukemia (intraperitoneal) in B6D2F1 (BDF1) mice. The conditions noted are these: endpoint: mean survival time, higher = longer survival. A digest of the protocol:
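Transplanted-tumor mice were given test agent; controls received vehicle only. Survival readings from the two groups were divided (treated over control).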

Where [1] appears, read: dose: 100.0 mg/kg/injection, schedule: Q04DX002 (ip), vehicle: Klucel (hydroxypropylcellulose) (HPC).
The mark [2] stands for this setting: dose: 200.0 mg/kg/injection, schedule: Q04DX002 (ip), vehicle: Klucel (hydroxypropylcellulose) (HPC).
Setting [3] is: dose: 400.0 mg/kg/injection, schedule: Q04DX002 (ip), vehicle: Klucel (hydroxypropylcellulose) (HPC).
Setting [4] is: dose: 100.0 mg/kg/injection, schedule: Q01DX009 (ip), vehicle: Klucel (hydroxypropylcellulose) (HPC).
Setting [5] is: dose: 200.0 mg/kg/injection, schedule: Q01DX009 (ip), vehicle: Klucel (hydroxypropylcellulose) (HPC).
Setting [6] is: dose: 100.0 mg/kg/injection, schedule: Q01DX001 (ip), vehicle: saline.
[7] abbreviates: dose: 200.0 mg/kg/injection, schedule: Q01DX001 (ip), vehicle: saline.
The mark [8] stands for this setting: dose: 400.0 mg/kg/injection, schedule: Q01DX001 (ip), vehicle: saline.
Where [9] appears, read: dose: 100.0 mg/kg/injection, schedule: Q04DX003 (ip), vehicle: saline with Tween-80.
[10] abbreviates: dose: 200.0 mg/kg/injection, schedule: Q04DX003 (ip), vehicle: saline with Tween-80.
Where [11] appears, read: dose: 100.0 mg/kg/injection, schedule: Q04DX002 (ip), vehicle: saline.
The mark [12] stands for this setting: dose: 200.0 mg/kg/injection, schedule: Q04DX002 (ip), vehicle: saline.
The mark [13] stands for this setting: dose: 400.0 mg/kg/injection, schedule: Q04DX002 (ip), vehicle: saline.
Where [14] appears, read: dose: 50.0 mg/kg/injection, schedule: Q01DX009 (ip), vehicle: saline with Tween-80.
[15] abbreviates: dose: 100.0 mg/kg/injection, schedule: Q01DX009 (ip), vehicle: saline with Tween-80.
Where [16] appears, read: dose: 200.0 mg/kg/injection, schedule: Q01DX009 (ip), vehicle: saline with Tween-80.
The mark [17] stands for this setting: dose: 50.0 mg/kg/injection, schedule: Q01DX009 (ip), vehicle: saline.
[18] abbreviates: dose: 100.0 mg/kg/injection, schedule: Q01DX009 (ip), vehicle: saline.

Where “and” joins values, the source holds several entries; their conditions need not be identical. Identical values can stand only once. Toxic doses and inconclusive results are not listed.

Turning to `Cc1[nH]c2ccccc2c(=O)c1/C=N/NC(N)=S`, the T/C is, setting by setting: under setting [1], 109 % of control; under setting [2], 91 % of control; under setting [3], 98 % of control.

In the case of `O=C1CCC(=O)N1c1ccccc1Cl`, the T/C reads like this: (dose: 87.5 mg/kg/injection, schedule: Q01DX001 (ip), vehicle: Klucel (hydroxypropylcellulose) (HPC)) 102 % of control; (dose: 175.0 mg/kg/injection, schedule: Q01DX001 (ip), vehicle: Klucel (hydroxypropylcellulose) (HPC)) 106 % of control; (dose: 350.0 mg/kg/injection, schedule: Q01DX001 (ip), vehicle: Klucel (hydroxypropylcellulose) (HPC)) 98 % of control.

In the case of `Cc1[nH]nc2c(=S)[nH]c(=O)[nH]c12`, the T/C was 92 % of control (dose: 75.0 mg/kg/injection, schedule: Q01DX001 (ip), vehicle: saline) and 96 % of control (dose: 150.0 mg/kg/injection, schedule: Q01DX001 (ip), vehicle: saline).

`CCCCNC(=O)N(CC)C(=NCC)c1ccc(NC(=O)c2ccc(C(=O)Nc3ccc(C(=NCC)N(CC)C(=O)NCCCC)cc3)cc2)cc1`: the T/C is 109 % of control (dose: 3.12 mg/kg/injection, schedule: Q01DX015 (ip), vehicle: methylcellulose (MC)); 121 % of control (dose: 6.25 mg/kg/injection, schedule: Q01DX015 (ip), vehicle: methylcellulose (MC)); 178 % of control (dose: 12.5 mg/kg/injection, schedule: Q01DX015 (ip), vehicle: methylcellulose (MC)); 120 % of control (dose: 25.0 mg/kg/injection, schedule: Q01DX015 (ip), vehicle: methylcellulose (MC)).

`O=Cc1cc(C(=O)c2ccccn2)c2cc(Cl)cc(Cl)c2n1`: the T/C is 94 % of control (dose: 100.0 mg/kg/injection, schedule: Q01DX001 (ip), vehicle: Klucel (hydroxypropylcellulose) (HPC)); 107 % of control under setting [4]; 89 % of control (dose: 200.0 mg/kg/injection, schedule: Q01DX001 (ip), vehicle: Klucel (hydroxypropylcellulose) (HPC)); 96 % of control under setting [5]; 94 % of control (dose: 400.0 mg/kg/injection, schedule: Q01DX001 (ip), vehicle: Klucel (hydroxypropylcellulose) (HPC)).

As for `Cc1ccc(CCS(=O)(=O)N=[N+]=[N-])cc1`, the T/C was 101 % of control under setting [6], 97 % of control under setting [7] and 101 % of control under setting [8].

As for `Nc1nc(C=O)c(Cc2ccc3ccccc3c2)c(=O)[nH]1`, the T/C under setting [9] was 100 % of control; the T/C under setting [10] is 108 % of control; the T/C (dose: 400.0 mg/kg/injection, schedule: Q04DX003 (ip), vehicle: saline with Tween-80) is 110 % of control.

As for `O=[N+]([O-])c1cc2c3c(cccc3c1)CC2`, the T/C under setting [6] is 95 % of control and 97 % of control; the T/C under setting [11] was 105 % of control; the T/C under setting [7] is 100 % of control; the T/C under setting [12] is 100 % of control; the T/C under setting [8] was 100 % of control and 110 % of control; the T/C under setting [13] is 101 % of control.

As for `O=C(CC(O)(C(F)(F)Cl)C(F)(F)Cl)c1ccco1`, the T/C is, setting by setting: under setting [14], 98 % of control; under setting [15], 98 % of control; under setting [9], 103 % of control; under setting [16], 95 % of control; under setting [10], 90 % of control.

Regarding `CC[N+]([O-])(CC)CCNc1ccc(CO)c2sc3ccccc3c(=O)c12`, the T/C under setting [17] was 92 % of control and the T/C under setting [18] is 121 % of control.

Consider `CN(C)CCCN1CCC2(CC1)NC(=O)NC2=O`, for which the T/C was 103 % of control under setting [11], 103 % of control under setting [12] and 103 % of control under setting [13].

For the molecule `O=S1(=O)C2CCCCCC2(N2CCOCC2)C1c1ccccc1` (configuration not stated), the T/C runs as follows: under setting [1], 101 % of control; under setting [2], 97 % of control; under setting [3], 93 % of control.

`Cc1c(NC(=O)OCc2ccccc2)no[n+]1[O-]`: the T/C by setting is: under setting [11], 102 % of control; under setting [12], 98 % of control; under setting [13], 98 % of control.

Consider `OCc1cscc1-c1cscc1CO`, for which the T/C runs as follows: (dose: 100.0 mg/kg/injection, schedule: Q01DX001 (ip), vehicle: saline with Tween-80) 97 % of control; (dose: 200.0 mg/kg/injection, schedule: Q01DX001 (ip), vehicle: saline with Tween-80) 111 % of control; (dose: 400.0 mg/kg/injection, schedule: Q01DX001 (ip), vehicle: saline with Tween-80) 93 % of control.

`CCOC(=O)N1CCN(P(=O)(c2ccccc2)N2CCN(C(=O)OCC)CC2)CC1`: the T/C under setting [4] was 93 % of control; the T/C under setting [5] was 93 % of control; the T/C (dose: 400.0 mg/kg/injection, schedule: Q01DX009 (ip), vehicle: Klucel (hydroxypropylcellulose) (HPC)) was 96 % of control.

With `C=C(C)C(=O)N(C)C`, the T/C was 105 % of control under setting [18]; 113 % of control (dose: 200.0 mg/kg/injection, schedule: Q01DX009 (ip), vehicle: saline); 103 % of control (dose: 400.0 mg/kg/injection, schedule: Q01DX009 (ip), vehicle: saline).

`CCc1oc(=O)c2ccccc2c1-c1ccccc1`: the T/C runs as follows: under setting [14], 93 % of control; under setting [15], 90 % of control; under setting [16], 93 % of control.

On to `N#C[Se]C[Se]C#N`, for which the T/C runs as follows: (dose: 1.56 mg/kg/injection, schedule: Q01DX001 (ip), vehicle: saline) 95 % of control; (dose: 3.13 mg/kg/injection, schedule: Q01DX001 (ip), vehicle: saline) 100 % of control; (dose: 6.25 mg/kg/injection, schedule: Q01DX001 (ip), vehicle: saline) 100 % of control.

With `CC(=O)CCN1CCCCC1`, the T/C (dose: 20.0 mg/kg/injection, schedule: Q04DX003 (ip), vehicle: saline) was 124 % of control.

For `CC(=O)NN=C(C)C`, the T/C (dose: 25.0 mg/kg/injection, schedule: Q01DX009 (ip), vehicle: saline) was 102 % of control; the T/C under setting [17] is 111 % of control; the T/C (dose: 50.0 mg/kg/injection, schedule: Q04DX003 (ip), vehicle: saline) is 99 % of control; the T/C (dose: 100.0 mg/kg/injection, schedule: Q04DX003 (ip), vehicle: saline) is 99 % of control; the T/C (dose: 200.0 mg/kg/injection, schedule: Q04DX003 (ip), vehicle: saline) was 99 % of control.

For `COc1cc(C=Nc2ccc(C(=O)O)c(O)c2)ccc1N(CCCl)CCCl`, the T/C (dose: 11.0 mg/kg/injection, schedule: Q01DX001 (ip), vehicle: carboxymethylcellulose (CMC)) is 118 % of control.
